{"source": "patent US11759444B2", "about": "“Methods for cancer and immunotherapy using prodrugs of glutamine analogs” (The Johns Hopkins University, priority 2015, dated 2023)", "key": {"[1]": {"test": "In vitro plasma stability, monkey plasma"}, "[2]": {"test": "In vitro plasma stability, human plasma"}, "[3]": {"test": "In vitro plasma stability, dog plasma", "format": "in vitro ADME"}, "[4]": {"test": "Plasma and CSF pharmacokinetics in swine, i.v. infusion", "format": "in vivo, Göttingen×Yucutan miniature swine", "settings": "60 min post-administration"}, "[5]": {"test": "Plasma and CSF pharmacokinetics in monkeys, i.v.", "format": "in vivo, pigtail macaques", "settings": "monkey", "method": "All monkey studies were conducted according to protocol (#PR15M298) approved by the Animal Care and Use Committee at Johns Hopkins University. Two female pigtail monkeys (approximately 3.5 kg, non-drug naive) were adjacently housed in stainless steel cages on a social interaction rack (contains 4 cages, each 32.5″ wide×28″ deep×32″ high) maintaining temperature of 64-84° F., humidity of 30-70% with alternating 14-10 hour light/dark cycle as per the USDA Animal Welfare Act (9 CFR, Parts 1, 2, and 3). Food was provided daily in amounts appropriate for the size and age of the animals and RO purified water provided ad libitum through an in-cage lixit valve. Food enrichment was provided Monday through Friday. […]\nWe have previously published a highly sensitive method for analysis of DON in biological matrices (Alt, et al., 2015). […] The mean predicted […] for back calculated concentrations of the standards and QC's for all analytes were within the range of 85 to 115%, except for the lowest concentration which was within the range of 80 to 120% with an overall accuracy and precision of 6.7% and 6.6% respectively.\nMean concentration-time data was used for pharmacokinetic analysis. […] Area under the curve (AUC) was calculated by log-linear trapezoidal rule to the end of sample collection (AUClast). […]"}, "[6]": {"test": "In vitro plasma stability, pig plasma", "format": "in vitro ADME"}, "[7]": {"test": "In vitro plasma stability, mouse plasma"}, "EL4 lymphoma": {"tested_on": "EL4 lymphoma", "test": "EL4 mouse lymphoma model", "format": "in vivo", "settings": "monotherapy"}, "[8]": {"settings": "microsomes"}, "EO771 cells": {"tested_on": "EO771 cells", "test": "EO771 breast cancer model", "format": "in vivo, C57BL/6 mice", "method": "Mouse: C57BL/6 (both male and female mice, 6-8 weeks of age) were purchased from Jackson Laboratories. The studies were conducted under a protocol approved by the Johns Hopkins Animal Care and Use Committee.\nCell Line: EO771 breast cancer cell lines were purchased from CH3 BioSystems.\nTreatment with immunotherapy alone or combined immunotherapy with compound 25: On days 9, 12, and 15, mice were injected with or without 100 μg anti-PD1 alone or 100 μg anti-PD1 in combination with 100 μg anti-CTLA4, followed by treatment with or without compound 25. Each individual mouse tumor growth and survival curves were recorded."}, "3LL cells": {"tested_on": "3LL cells", "test": "3LL tumor model", "format": "in vivo, C57BL/6J mice", "text": "5×10^6 3 LL cells were implanted subcutaneously into the right flank in C57BL/6J male mice."}, "B16-OVA melanoma cells": {"tested_on": "B16-OVA melanoma cells", "test": "B16-OVA melanoma model with adoptive cellular therapy", "format": "in vivo, C57BL/6 mice", "settings": "1 mg/kg/day days 7-9 before transfer on day 10", "method": "Adoptive Cellular Therapy: OVA-expressing B16 melanoma model, C57BL/6 WT mice received a s.c. injection of 2×10^5 B16-OVA melanoma cells cultured under OVA selection media containing 400 μg/ml G418 (Life technologies). Mice were treated with compound 25 or vehicle by daily gavage with 1 mg/kg/day in 100 uL for days 7-9 post tumor inoculation. Ten days after tumor injection, mice received an adoptive transfer of 1.5×10^6 activated OT1 cells, which had been stimulated in vitro with […] peptide for 48 h, expanded in IL-2 (1 ng/mL) for 24 h and isolated with Ficol gradient centrifugation. Mice were randomized based on tumor size before transfer of activated OT1 cells for adoptive transfer experiments. Tumor burden was assessed every 2-4 days by measuring length and width of tumor. Tumor volume was calculated using the formula V=(L×W×W)/2, where V is tumor volume, W is tumor width, and L is tumor length. Mice were sacrificed when tumor reached 2 cm in any dimension, became ulcerate or necrotic, or caused functional deficits."}, "MC38 cells [9]": {"tested_on": "MC38 cells", "test": "MC38 colon cancer tumor model", "format": "in vivo, C57BL/6 mice", "settings": "growth rate recovered after several days"}, "MC38 cells [10]": {"tested_on": "MC38 cells", "test": "MC38 colon cancer tumor model", "format": "in vivo, C57BL/6 mice", "settings": "for MC38 tumor response, monotherapy (words): 1 mg/kg followed by 0.3 mg/kg, 14 days, wild type mice; for rejection of tumor re-challenge by mice cured with monotherapy: MC38 rechallenge on opposite flank; for MC38 response in combination with anti-PD1: combination with anti-PD-1", "method": "(§1) Tumor growth and survival experiments: Tumor injections were administered in the right flank. For the MC38 and MC38OVA models, C57BL/6 WT mice were injected with 5×10^5 MC38 or MC38OVA cells (s.c.) cultured in DMEM-based media. For the CT26 model, BALB/c mice were injected with 5×10^5 CT26 cells (s.c.) cultured in RPMI-based media. Compound 25 was dissolved in 2.5% ethanol in PBS (v/v) which was administered for all vehicle-treated control experiments. For MC38 and MC38OVA experiments, mice were treated with Compound 25 or vehicle by daily gavage with 1 mg/kg/day in 100 uL for days 10-14 and with 0.3 mg/kg/day for day 15-24. For CT26 experiments, mice were treated with compound 25 or vehicle by daily gavage with 1 mg/kg/day in 100 uL for days 7-11 and with 0.3 mg/kg/day for day 12-21."}, "B16 melanoma": {"tested_on": "B16 melanoma", "test": "B16 melanoma mouse model", "format": "in vivo", "settings": "monotherapy"}, "CT26 cells": {"tested_on": "CT26 cells", "test": "CT26 colon cancer tumor model", "format": "in vivo, BALB/c mice", "settings": "for CT26 anti-tumor response in combination with anti-PD1: combination with anti-PD-1", "method": "as §1"}, "[11]": {"settings": "microsomes", "remark": "listed apart in the source"}, "4T1 tumor cells": {"tested_on": "4T1 tumor cells", "test": "4T1 breast cancer model", "settings": "for 4T1 tumor growth and survival, monotherapy (words): 1 mg/kg daily"}, "[12]": {"settings": "Table 2, prodrug 10 μM, 60 min incubation at 37° C., values read as % prodrug remaining"}, "[13]": {"settings": "1 mg/kg daily day 7 to 16, tumors evaluated day 21"}}, "note": "“Also recorded” adds a separate entry of the source. Read-outs that look alike come from different tables or passages of the source.", "data": [{"smiles": "CC(C)OC(=O)[C@H](CCC(=O)C=[N+]=[N-])NC(=O)O[C@H](C)OC(=O)C(C)(C)C", "note": "(single isomer, unassigned) [Compound 14b]", "values": [{"measurement": "stability in monkey plasma", "setting": "[1]", "value": "stable"}, {"measurement": "PLASMA STABILITY Monkey", "setting": "[1]; [12]", "value": 61, "unit": "%"}, {"measurement": "stability in monkey plasma", "setting": "[1]; listed as 5c", "value": "stable; also recorded: excellent stability"}, {"measurement": "stability in human plasma", "setting": "[2]", "value": "stable"}, {"measurement": "PLASMA STABILITY Human", "setting": "[2]; [12]", "value": 91, "unit": "%"}, {"measurement": "stability in human plasma", "setting": "[2]; listed as 5c", "value": "stable; also recorded: excellent stability"}, {"measurement": "stability in dog plasma", "setting": "[3]", "value": "stable"}, {"measurement": "CSF delivery of DON", "setting": "[4]", "value": "substantially higher amounts of DON; also recorded: enhanced CSF delivery of DON"}, {"measurement": "CSF-to-plasma ratio of DON", "setting": "[4]", "value": "increased CSF-to-plasma ratios; also recorded: enhanced CSF:plasma ratio of DON"}, {"measurement": "CSF:plasma ratio of DON", "setting": "[5]", "value": "enhanced CSF:plasma ratio of DON"}, {"measurement": "stability in pig plasma", "setting": "[6]", "value": "stable"}, {"measurement": "metabolism in mouse plasma", "setting": "[7]", "value": "rapidly metabolized"}, {"measurement": "PLASMA STABILITY Mouse", "setting": "[7]; [12]", "value": 0, "unit": "%"}, {"measurement": "metabolism in mouse plasma", "setting": "[7]; listed as 5c", "value": "completely converted to DON"}]}, {"smiles": "CCOC(=O)[C@H](CCC(=O)C=[N+]=[N-])NC(=O)[C@@H](N)CC(C)C", "note": "[Compound 25]", "values": [{"measurement": "lymphoma tumor growth", "setting": "EL4 lymphoma", "value": "marked decrease in tumor growth"}, {"measurement": "liver microsomal stability, pig", "setting": "[8]", "value": "moderate-high stability"}, {"measurement": "EO771 tumor growth and survival, single agent", "setting": "EO771 cells; agent alone", "value": "delayed tumor growth and increased survival"}, {"measurement": "EO771 tumor growth and survival, combination with anti-PD-1", "setting": "EO771 cells; compound 25 + anti-PD-1", "value": "surprising increase in inhibition of tumor growth and survival"}, {"measurement": "3LL tumor growth", "setting": "3LL cells; 1 mg/kg from day 7, then 0.3 mg/kg", "value": "reduced tumor growth"}, {"measurement": "ratio of CD8 cells to MDSCs+ and TANs, blood and TIL", "setting": "3LL cells; 3LL tumor-bearing mice", "value": "increased ratio of CD8 cells to MDSCs+ and TANs"}, {"measurement": "tumor control and survival with adoptive transfer of activated OT1 T cells", "setting": "B16-OVA melanoma cells", "value": "unexpected improvement in tumor control and survival"}, {"measurement": "MC38 tumor growth in RAG2−/− mice", "setting": "MC38 cells [9]", "value": "some initial effect on tumor growth"}, {"measurement": "MC38 tumor response, monotherapy (words)", "setting": "MC38 cells [10]", "value": "complete and durable response"}, {"measurement": "MC38 tumor response, monotherapy (words)", "setting": "MC38 cells [10]; listed as compound 25", "value": "marked decrease in tumor growth; also recorded: durable cures; also recorded: significant control of the tumor including complete regression in a proportion of the mice"}, {"measurement": "rejection of tumor re-challenge by mice cured with monotherapy", "setting": "MC38 cells [10]", "value": "immunologically reject tumors upon re-challenge"}, {"measurement": "rejection of tumor re-challenge by mice cured with monotherapy", "setting": "MC38 cells [10]; listed as compound 25", "value": "More than three-quarters"}, {"measurement": "MC38 response in combination with anti-PD1", "setting": "MC38 cells [10]", "value": "conditions tumors to be eliminated by anti-PD1 therapy; also recorded: rescues anti-PD1 failures"}, {"measurement": "MC38 response in combination with anti-PD1", "setting": "MC38 cells [10]; listed as compound 25", "value": "unexpected increase in both tumor regression and complete responses"}, {"measurement": "melanoma tumor growth", "setting": "B16 melanoma", "value": "marked decrease in tumor growth"}, {"measurement": "CT26 tumor model, comparison with CB-839", "setting": "CT26 cells; 25 short daily course vs CB-839 continuous BID dosing", "value": "superior to CB-839"}, {"measurement": "CT26 anti-tumor response in combination with anti-PD1", "setting": "CT26 cells", "value": "unexpectedly enhances the response to anti-PD1"}, {"measurement": "CT26 anti-tumor response in combination with anti-PD1", "setting": "CT26 cells; listed as compound 25", "value": "significant anti-tumor responses"}, {"measurement": "CT26 tumor response and survival, monotherapy (words)", "setting": "CT26 cells", "value": "robust response and improved overall survival"}, {"measurement": "CT26 tumor response and survival, monotherapy (words)", "setting": "CT26 cells; listed as compound 25", "value": "marked decrease in tumor growth"}, {"measurement": "liver microsomal stability, human", "setting": "[11]", "value": "moderate-high stability"}, {"measurement": "4T1 tumor growth and survival, monotherapy (words)", "setting": "4T1 tumor cells", "value": "robust response and improved overall survival"}, {"measurement": "CD11b+ cells and G-MDSCs in circulating blood", "setting": "4T1 tumor cells; 1 mg/kg daily day 7 to 16, flow cytometry days 6, 9, 17", "value": "reduced CD11b+ cells and G-MDSCs"}, {"measurement": "TNF alpha in tumor associated macrophages", "setting": "4T1 tumor cells; [13]", "value": "increased TNF alpha"}, {"measurement": "fibrocytes in tumor", "setting": "4T1 tumor cells; [13]", "value": "reduced fibrocytes"}, {"measurement": "4T1-Luc tumor luminescence, comparison with anti-PD1", "setting": "4T1 tumor cells; 1 mg/kg daily from day 7, IVIS imaging day 13", "value": "inhibited mammary carcinoma cell proliferation better than anti-PD1"}, {"measurement": "4T1 tumor growth and survival, monotherapy (words)", "setting": "4T1 tumor cells; listed as compound 25", "value": "inhibited the growth of mammary carcinoma tumor cells; also recorded: modest decrease in tumor growth"}, {"measurement": "spontaneous lung metastasis", "setting": "4T1 tumor cells; 1 mg/kg from day 7, then 0.3 mg/kg, lungs harvested day 30", "value": "significantly reduces lung metastasis"}, {"measurement": "4T1 breast cancer model, comparison with CB-839", "setting": "4T1 tumor cells; 25 daily days 7-22 (1.0 mg/kg/d) vs CB-839 BID days 1-29", "value": "superior to CB-839"}, {"measurement": "4T1 tumor growth and survival, combination with anti-PD1 and anti-CTLA4", "setting": "4T1 tumor cells; compound 25 + anti-PD1 + anti-CTLA-4", "value": "substantial decrease of tumor growth and increase in survival time"}]}]}
